How the values were obtained:
[1] = molecular target: WRN helicase (Homo sapiens (Human), UniProt Q14191); assay: In vitro enzymatic activity assay on WRN helicase (DNA dependent ATPase assay, ADP-Glo); type: biochemical; details: geometric means of at least 2 determinations; read-out: WRN ATPase Activity (IC50)
Summary of the method: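 DNA-dependent ATPase activity was measured by ADP-Glo luminescent ADP detection after a 30-min room-temperature reaction. The reaction contained 10 nM WRN (residues N517-P1238), 0.2 nM FLAP26 and 300 µM ATP at pH 7.5 with 2 mM MgCl2. Compounds were tested as 10-point half-log series in duplicate; IC50 values are geometric means from at least two independent experiments.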

[2] = tested on: SW48 cells; assay: Proliferation assay SW48 (CellTiterGlo, 96 hours); details: Homo sapiens, SW48, read-out: Proliferation Assay SW48 (GI50)
[3] = tested on: DLD1-WRN-KO cells; assay: Proliferation assay DLD1-WRN-KO (CellTiterGlo, 96 hours; off-target effects); details: Homo sapiens, read-out: Proliferation Assay DLD1-WRN-KO (GI50)

WRN helicase, sequence (Q14191 517-1238): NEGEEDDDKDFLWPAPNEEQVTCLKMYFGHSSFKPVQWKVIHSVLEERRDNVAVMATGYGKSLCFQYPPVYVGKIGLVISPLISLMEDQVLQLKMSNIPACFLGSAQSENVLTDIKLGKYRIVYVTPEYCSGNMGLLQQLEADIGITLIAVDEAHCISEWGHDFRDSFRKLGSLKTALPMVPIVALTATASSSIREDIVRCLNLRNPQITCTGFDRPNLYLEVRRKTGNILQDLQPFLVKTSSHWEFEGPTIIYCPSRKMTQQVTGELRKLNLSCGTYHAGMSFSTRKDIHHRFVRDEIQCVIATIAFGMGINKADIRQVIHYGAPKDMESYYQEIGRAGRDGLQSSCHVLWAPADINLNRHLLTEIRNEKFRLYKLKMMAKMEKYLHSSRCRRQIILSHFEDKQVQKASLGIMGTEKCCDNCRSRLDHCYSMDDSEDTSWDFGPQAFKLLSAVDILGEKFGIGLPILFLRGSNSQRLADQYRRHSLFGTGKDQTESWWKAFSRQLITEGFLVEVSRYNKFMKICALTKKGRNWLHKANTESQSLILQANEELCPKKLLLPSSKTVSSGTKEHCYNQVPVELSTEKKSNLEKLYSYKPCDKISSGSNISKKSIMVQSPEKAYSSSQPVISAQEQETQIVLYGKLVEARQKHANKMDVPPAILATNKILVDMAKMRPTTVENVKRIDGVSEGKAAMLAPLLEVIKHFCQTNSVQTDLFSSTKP

IC50 [1] [nM]	GI50 [2] [nM]	GI50 [3] [nM]	Compound
40	40	> 10000	CCc1c(N2CCN(C(=O)c3ncncc3O)CC2)c(=O)n2nc(C3=CCOCC3)nc2n1CC(=O)Nc1ccc(S(F)(F)(F)(F)F)cc1Cl [Example 52, N-(2-chloro-4-(pentafluorosulfanyl)phenyl)-2-(2-(3,6-dihydro-2H-pyran-4-yl)-5-ethyl-6-(4-(5-hydroxypyrimidine-4-carbonyl)piperazin-1-yl)-7-oxo-[1,2,4]triazolo[1,5-a]pyrimidin-4(7H)-yl)acetamide]
120	140	> 10000	CCc1c(N2CCN(C(=O)c3ncnc(C)c3O)CC2)c(=O)n2nc(C3=CCOCC3)nc2n1CC(=O)Nc1cc(F)c(C(F)F)cc1C [Example 53, N-(4-(difluoromethyl)-5-fluoro-2-methylphenyl)-2-(2-(3,6-dihydro-2H-pyran-4-yl)-5-ethyl-6-(4-(5-hydroxy-6-methylpyrimidine-4-carbonyl)piperazin-1-yl)-7-oxo-[1,2,4]triazolo[1,5-a]pyrimidin-4(7H)-yl)acetamide]
1300	6010	> 10000	CCc1c(N2CCN(C(=O)c3ncnc(C)c3O)CC2)c(=O)n2nc(C3=CCOCC3)nc2n1CC(=O)Nc1cc(F)c(C=O)cc1C [Example 54, 2-(2-(3,6-dihydro-2H-pyran-4-yl)-5-ethyl-6-(4-(5-hydroxy-6-methylpyrimidine-4-carbonyl)piperazin-1-yl)-7-oxo-[1,2,4]triazolo[1,5-a]pyrimidin-4(7H)-yl)-N-(5-fluoro-4-formyl-2-methylphenyl)acetamide]
200	100	> 10000	CCc1c(N2CCN(C(=O)c3ncccc3O)CC2)c(=O)n2nc(C3=CCCCO3)nc2n1CC(=O)Nc1ccc(C(F)(F)F)nc1C [Example 55, 2-(2-(3,4-dihydro-2H-pyran-6-yl)-5-ethyl-6-(4-(3-hydroxypicolinoyl)piperazin-1-yl)-7-oxo-[1,2,4]triazolo[1,5-a]pyrimidin-4(7H)-yl)-N-(2-methyl-6-(trifluoromethyl)pyridin-3-yl)acetamide]
160	250	> 10000	CCc1c(N2CCN(C(=O)c3nccc(Cl)c3O)CC2)c(=O)n2nc(C3=CCCCO3)nc2n1CC(=O)Nc1ccc(C(F)(F)F)nc1C [Example 56, 2-(6-(4-(4-chloro-3-hydroxypicolinoyl)piperazin-1-yl)-2-(3,4-dihydro-2H-pyran-6-yl)-5-ethyl-7-oxo-[1,2,4]triazolo[1,5-a]pyrimidin-4(7H)-yl)-N-(2-methyl-6-(trifluoromethyl)pyridin-3-yl)acetamide]
100	100	> 10000	CCc1c(N2CCN(C(=O)c3ncnc(C)c3O)CC2)c(=O)n2nc(C3=CCOCC3)nc2n1CC(=O)Nc1ccc(C(F)(F)F)cc1C [Example 57, 2-(2-(3,6-dihydro-2H-pyran-4-yl)-5-ethyl-6-(4-(5-hydroxy-6-methylpyrimidine-4-carbonyl)piperazin-1-yl)-7-oxo-[1,2,4]triazolo[1,5-a]pyrimidin-4(7H)-yl)-N-(2-methyl-4-(trifluoromethyl)phenyl)acetamide]
240	880	> 10000	CCc1c(N2CCN(C(=O)c3ncccc3O)CC2)c(=O)n2nc(C3=CC(=O)OCC3)nc2n1CC(=O)Nc1ccc(C(F)(F)F)cc1C [Example 60, 2-(5-ethyl-6-(4-(3-hydroxypicolinoyl)piperazin-1-yl)-7-oxo-2-(6-oxo-3,6-dihydro-2H-pyran-4-yl)-[1,2,4]triazolo[1,5-a]pyrimidin-4(7H)-yl)-N-(2-methyl-4-(trifluoromethyl)phenyl)acetamide]
50	50	> 10000	CCc1c(N2CCN(C(=O)c3nccc(Cl)c3O)CC2)c(=O)n2nc(C3=CCOCC3)nc2n1CC(=O)Nc1ccc(C(F)(F)F)cc1C [Example 61, 2-(6-(4-(4-chloro-3-hydroxypicolinoyl)piperazin-1-yl)-2-(3,6-dihydro-2H-pyran-4-yl)-5-ethyl-7-oxo-[1,2,4]triazolo[1,5-a]pyrimidin-4(7H)-yl)-N-(2-methyl-4-(trifluoromethyl)phenyl)acetamide]
50	50	> 10000	CCc1c(N2CCN(C(=O)c3nc(C)cc(F)c3O)CC2)c(=O)n2nc(C3=CCOCC3)nc2n1CC(=O)Nc1ccc(C(F)(F)F)cc1C [Example 62, 2-(2-(3,6-dihydro-2H-pyran-4-yl)-5-ethyl-6-(4-(4-fluoro-3-hydroxy-6-methylpicolinoyl)piperazin-1-yl)-7-oxo-[1,2,4]triazolo[1,5-a]pyrimidin-4(7H)-yl)-N-(2-methyl-4-(trifluoromethyl)phenyl)acetamide]
110	50	> 10000	CCc1c(N2CCN(C(=O)c3nccc(F)c3O)CC2)c(=O)n2nc(C3=CCOCC3)nc2n1CC(=O)Nc1ccc(C(F)(F)F)cc1C [Example 63, 2-(2-(3,6-dihydro-2H-pyran-4-yl)-5-ethyl-6-(4-(4-fluoro-3-hydroxypicolinoyl)piperazin-1-yl)-7-oxo-[1,2,4]triazolo[1,5-a]pyrimidin-4(7H)-yl)-N-(2-methyl-4-(trifluoromethyl)phenyl)acetamide]
90	480	> 10000	CCc1c(N2CCN(C(=O)c3ncncc3O)CC2)c(=O)n2nc(C3=CCOCC3)nc2n1CC(=O)Nc1ccc(C(F)(F)F)cc1C [Example 64, 2-(2-(3,6-dihydro-2H-pyran-4-yl)-5-ethyl-6-(4-(5-hydroxypyrimidine-4-carbonyl)piperazin-1-yl)-7-oxo-[1,2,4]triazolo[1,5-a]pyrimidin-4(7H)-yl)-N-(2-methyl-4-(trifluoromethyl)phenyl)acetamide]
50	80	7800	CCc1c(N2CCN(C(=O)c3ncc(Cl)cc3O)CC2)c(=O)n2nc(C3=CCOCC3)nc2n1CC(=O)Nc1ccc(C(F)(F)F)cc1C [Example 65, 2-(6-(4-(5-chloro-3-hydroxypicolinoyl)piperazin-1-yl)-2-(3,6-dihydro-2H-pyran-4-yl)-5-ethyl-7-oxo-[1,2,4]triazolo[1,5-a]pyrimidin-4(7H)-yl)-N-(2-methyl-4-(trifluoromethyl)phenyl)acetamide]
40	90	> 10000	CCc1c(N2CCN(C(=O)c3nccc(C)c3O)CC2)c(=O)n2nc(C3=CCOCC3)nc2n1CC(=O)Nc1ccc(C(F)(F)F)cc1C [Example 66, 2-(2-(3,6-dihydro-2H-pyran-4-yl)-5-ethyl-6-(4-(3-hydroxy-4-methylpicolinoyl)piperazin-1-yl)-7-oxo-[1,2,4]triazolo[1,5-a]pyrimidin-4(7H)-yl)-N-(2-methyl-4-(trifluoromethyl)phenyl)acetamide]
150	190	> 10000	CCc1c(N2CCN(C(=O)c3nccc(OC(F)(F)F)c3O)CC2)c(=O)n2nc(C3=CCOCC3)nc2n1CC(=O)Nc1ccc(C(F)(F)F)cc1C [Example 67, 2-(2-(3,6-dihydro-2H-pyran-4-yl)-5-ethyl-6-(4-(3-hydroxy-4-(trifluoromethoxy)picolinoyl)piperazin-1-yl)-7-oxo-[1,2,4]triazolo[1,5-a]pyrimidin-4(7H)-yl)-N-(2-methyl-4-(trifluoromethyl)phenyl)acetamide]
120	270	> 10000	CCc1c(N2CCN(C(=O)c3nc(C)ncc3O)CC2)c(=O)n2nc(C3=CCOCC3)nc2n1CC(=O)Nc1ccc(C(F)(F)F)cc1C [Example 68, 2-(2-(3,6-dihydro-2H-pyran-4-yl)-5-ethyl-6-(4-(5-hydroxy-2-methylpyrimidine-4-carbonyl)piperazin-1-yl)-7-oxo-[1,2,4]triazolo[1,5-a]pyrimidin-4(7H)-yl)-N-(2-methyl-4-(trifluoromethyl)phenyl)acetamide]
40	30	6300	CCc1c(N2CCN(C(=O)c3ncccc3O)CC2)c(=O)n2nc(C3=CCOCC3)nc2n1CC(=O)Nc1cc(Cl)c(C(F)(F)F)cc1C [Example 69, N-(5-chloro-2-methyl-4-(trifluoromethyl)phenyl)-2-(2-(3,6-dihydro-2H-pyran-4-yl)-5-ethyl-6-(4-(3-hydroxypicolinoyl)piperazin-1-yl)-7-oxo-[1,2,4]triazolo[1,5-a]pyrimidin-4(7H)-yl)acetamide]
100	220	> 10000	CCc1c(N2CCN(C(=O)c3ncccc3O)CC2)c(=O)n2nc(C3=CCOCC3)nc2n1CC(=O)Nc1cc(F)c(C(F)(F)F)nc1C [Example 70, 2-(2-(3,6-dihydro-2H-pyran-4-yl)-5-ethyl-6-(4-(3-hydroxypicolinoyl)piperazin-1-yl)-7-oxo-[1,2,4]triazolo[1,5-a]pyrimidin-4(7H)-yl)-N-(5-fluoro-2-methyl-6-(trifluoromethyl)pyridin-3-yl)acetamide]
70	60	> 10000	CCc1c(N2CCN(C(=O)c3ncccc3O)[C@H](C)C2)c(=O)n2nc(C3=CCOCC3)nc2n1CC(=O)Nc1ccc(C(F)(F)F)cc1 [Example 71, (R)-2-(2-(3,6-dihydro-2H-pyran-4-yl)-5-ethyl-6-(4-(3-hydroxypicolinoyl)-3-methylpiperazin-1-yl)-7-oxo-[1,2,4]triazolo[1,5-a]pyrimidin-4(7H)-yl)-N-(4-(trifluoromethyl)phenyl)acetamide]
